Key:
[1] = tested on: AP-1; assay: Cellular Transrepressional Assay (AP-1 luciferase reporter in A549 cells); type: cell-based; details: A549 cell stably transfected with pAP-1-Luc, 10 ng/ml PMA, 7 hours; for AP-1 Max % inh (Cellular Transrepression Assay): maximum inhibition; for EC50: read-out: AP-1 EC50, nM (Cellular Transrepression Assay)
Description: Cellular Transrepressional Assay
To measure the ability of test molecules to inhibit AP-1 induced transcriptional activity, an A549 cell was utilized which was stably transfected with a plasmid containing 7×AP-1 DNA binding sites (pAP-1-Luc plasmid, Stratagene Co. La Jolla, Calif.) followed by the gene for luciferase. Cells were activated with 10 ng/ml of […] (PMA) plus or minus test molecules for 7 hours. After 7 hours a luciferase reagent was added to measure luciferase enzymatic activity in the cell. After a 10 minute incubation of luciferase reagent with cells, luminescence was measured in a TopCount luminescence counter. Repression of AP-1 activity was calculated as the percentage decrease in the signal induced by PMA alone. Test molecules were analyzed in the concentration range from 0.1 nM to 40 μM. EC50s were determined by using standard curve fitting methods such as Excel fit (Microsoft Co.).

[2] = target: T1, human glucocorticoid receptor (Homo sapiens, UniProt P04150); assay: Glucocorticoid Receptor Binding Assay (fluorescence polarization competitor kit); details: purified human recombinant full-length GR 2 nM, 1 nM Fluormone GS Red, 2 h room temperature
T1 construct: purified human recombinant full-length glucocorticoid receptor (2 nM); purchased Invitrogen Part #2893
T1 sequence (P04150 1-777): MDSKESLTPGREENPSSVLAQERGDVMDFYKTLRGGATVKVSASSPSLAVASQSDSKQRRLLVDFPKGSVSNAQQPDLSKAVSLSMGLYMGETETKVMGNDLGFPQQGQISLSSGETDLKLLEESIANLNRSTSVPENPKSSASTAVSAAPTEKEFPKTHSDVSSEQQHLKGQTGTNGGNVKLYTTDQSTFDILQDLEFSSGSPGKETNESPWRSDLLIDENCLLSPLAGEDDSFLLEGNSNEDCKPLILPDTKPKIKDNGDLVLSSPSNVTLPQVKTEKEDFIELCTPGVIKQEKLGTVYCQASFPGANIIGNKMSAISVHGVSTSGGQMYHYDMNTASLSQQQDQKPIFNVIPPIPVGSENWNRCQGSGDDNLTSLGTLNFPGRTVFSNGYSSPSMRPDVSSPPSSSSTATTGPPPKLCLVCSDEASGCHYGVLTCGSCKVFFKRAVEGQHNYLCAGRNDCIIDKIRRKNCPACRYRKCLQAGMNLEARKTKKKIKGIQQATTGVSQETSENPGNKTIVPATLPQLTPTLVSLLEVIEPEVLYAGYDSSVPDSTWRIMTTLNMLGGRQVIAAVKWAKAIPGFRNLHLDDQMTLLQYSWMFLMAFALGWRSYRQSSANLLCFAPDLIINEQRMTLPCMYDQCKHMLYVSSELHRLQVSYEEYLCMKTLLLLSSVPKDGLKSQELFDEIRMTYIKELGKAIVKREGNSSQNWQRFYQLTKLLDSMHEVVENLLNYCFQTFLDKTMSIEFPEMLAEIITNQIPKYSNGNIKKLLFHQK
Description: Glucocorticoid Receptor Binding Assay
In order to assess the affinity of test compounds for the human glucocorticoid receptor, a commercially available kit was used (Glucocorticoid Receptor Competitor Assay Kit, Invitrogen Part #2893). Briefly, purified human recombinant full-length glucocorticoid receptor (2 nM) was mixed with fluorescently labeled glucocorticoid (1 nM Fluormone GS Red) in the presence or absence of test compound. After two hour incubation at room temperature in the dark, the fluorescence polarization (FP) of the samples was measured. […] Test compounds were analyzed in the concentration range from 8.5E-05 μM to 5 μM.

Compound | EC50 [1] [nM] | Ki [2] [nM] | AP-1 Max % inh (Cellular Transrepression Assay) [1] [%]
CCOC(=O)NCC(C)(C)C(c1ccccc1)c1ccn2c(-c3ccccc3)ncc2c1 (stereo not shown) [Example 3, Ethyl 2,2-dimethyl-3-phenyl-3-(3-phenylH-imidazo[1,5-a]pyridin-7-yl)propylcarbamate] |  | 27.4 | 
CC(C)(C(=O)Nc1nccs1)C(c1ccccc1)c1ccc2c(-c3ccc(F)cc3)ncn2c1 (stereo not shown) [Example 5, 3-(1-(4-Fluorophenyl)H-imidazo[1,5-a]pyridin-6-yl)-2,2-dimethyl-3-phenyl-N-(thiazol-2-yl)propanamide] | 34.1 |  | 71.08
CC(C)(C(=O)Nc1nccs1)C(c1ccccc1)c1ccc2c(-c3cccc(C#N)c3)ncn2c1 (stereo not shown) [Example 7, 3-(1-(3-Cyanophenyl)H-imidazo[1,5-a]pyridin-6-yl)-2,2-dimethyl-3-phenyl-N-(thiazol-2-yl)propanamide] |  | 17 | 
CC(C)(C(=O)Nc1nccs1)C(c1ccccc1)c1ccc2nncn2c1 (stereo not shown) [Example 8, 3-([1,2,4]-Triazolo[4,3-a]pyridin-6-yl)-2,2-dimethyl-3-phenyl-N-(thiazol-2-yl)propanamide] |  | 169 | 
CC(C)(C(=O)Nc1nccs1)C(c1ccccc1)c1ccn2cncc2c1 (stereo not shown) [Example 12] |  | 17.7 | 
CC(C)(C(=O)Nc1nccs1)C(c1ccccc1)c1ccc2c(-c3ccc(C#N)cc3)ncn2c1 (stereo not shown) [Example 16] |  | 26.2 | 
CC(C)(C(=O)Nc1nncs1)C(c1ccccc1)c1ccc2c(-c3ccc(F)cc3F)ncn2c1 (stereo not shown) [Example 19] | 16 |  | 45.65
CC(C)(C(=O)Nc1nncs1)C(c1ccccc1)c1ccc2c(-c3ccc(F)c(Cl)c3)ncn2c1 (stereo not shown) [Example 21] |  | 46.6 | 
CC(C)(C(=O)Nc1nncs1)C(c1ccccc1)c1ccc2c(-c3cccc(CO)c3)ncn2c1 (stereo not shown) [Example 22] |  | 12.2 | 
Cc1cscc1-c1ncn2cc(C(c3ccccc3)C(C)(C)C(=O)Nc3nncs3)ccc12 (stereo not shown) [Example 23] |  | 36 | 
Cc1nnc2ccc(C(c3ccccc3)C(C)(C)C(=O)Nc3nncs3)cn12 (stereo not shown) [Example 26] |  | 5450 | 

Continued, in another order:

EC50 [1] [nM] | Ki [2] [nM] | Compound | AP-1 Max % inh (Cellular Transrepression Assay) [1] [%]
112 |  | CC(C)(C(=O)Nc1nncs1)C(c1ccccc1)c1ccn2c(-c3ccccc3)ncc2c1 (stereo not shown) [Example 1, 2,2-Dimethyl-3-phenyl-3-(3-phenylH-imidazo[1,5-a]pyridin-7-yl)-N-(1,3,4-thiadiazol-2-yl)propanamide] | 63.58
 | 16.5 | CC(C)(CNC(=O)C(F)(F)F)C(c1ccccc1)c1ccn2c(-c3ccccc3)ncc2c1 (stereo not shown) [Example 2, N-(2,2-Dimethyl-3-phenyl-3-(3-phenylH-imidazo[1,5-a]pyridin-7-yl)propyl)-2,2,2-trifluoroacetamide] | 
 | 13 | CC(C)(C(=O)Nc1nccs1)C(c1ccccc1)c1ccc2cncn2c1 (stereo not shown) [Example 4, 3-(H-Imidazo[1,5-a]pyridin-6-yl)-2,2-dimethyl-3-phenyl-N-(thiazol-2-yl)propanamide] | 
 | 30.2 | CC(C)(C(=O)Nc1nccs1)C(c1ccccc1)c1ccc2c(Br)ncn2c1 (stereo not shown) [Example 6, 3-(1-BromoH-imidazo[1,5-a]pyridin-6-yl)-2,2-dimethyl-3-phenyl-N-(thiazol-2-yl)propanamide] | 
10.1 |  | CC(C)(C(=O)Nc1nccs1)C(c1ccccc1)c1ccn2c(-c3ccccc3)ncc2c1 (stereo not shown) [Example 9] | 67.35
 | 7.3 | CC(C)(C(=O)NC1CC1)C(c1ccccc1)c1ccn2c(-c3ccccc3)ncc2c1 (stereo not shown) [Example 10] | 
 | 27.1 | CC(C)(C(=O)Nc1nncs1)C(c1ccccc1)c1ccn2cncc2c1 (stereo not shown) [Example 11] | 
 | 19.5 | CC(C)(C(=O)Nc1nncs1)C(c1ccccc1)c1ccc2cncn2c1 (stereo not shown) [Example 13] | 
43.6 |  | CC(C)(C(=O)Nc1nncs1)C(c1ccccc1)c1ccc2c(-c3ccc(F)cc3)ncn2c1 (stereo not shown) [Example 14] | 55.80
 | 22.6 | CC(C)(C(=O)Nc1nncs1)C(c1ccccc1)c1ccc2c(-c3cccc(C#N)c3)ncn2c1 (stereo not shown) [Example 15] | 
13 |  | CC(C)(C(=O)Nc1nccs1)C(c1ccccc1)c1ccc2c(-c3ccc(F)cc3F)ncn2c1 (stereo not shown) [Example 18] | 55.81
 | 65.9 | CC(C)(C(=O)Nc1nccs1)C(c1ccccc1)c1ccc2c(-c3ccc(F)c(Cl)c3)ncn2c1 (stereo not shown) [Example 20] | 
 | 327 | CC(C)(C(=O)Nc1nncs1)C(c1ccccc1)c1ccc2nncn2c1 (stereo not shown) [Example 24] | 
 | 2360 | Cc1nnc2ccc(C(c3ccccc3)C(C)(C)C(=O)Nc3nccs3)cn12 (stereo not shown) [Example 25] | 

Source: patent US7994190B2, “Modulators of glucocorticoid receptor, AP-1, and/or NF-κB activity and use thereof” (Bristol-Myers Squibb Company, priority 2006, dated 2011)
